Here are results for 31 compounds from ChEMBL document CHEMBL5385976, “Recognition of arylmethylidene derivatives of imidazothiazolotriazinones as novel tubulin polymerization inhibitors” (RSC Med Chem, 2024).

SMILES strings stand for the structures.

In one experiment the test system is COLO357. As to the kind of experiment: Inhibition of cell growth in human COLO357 cells incubated for 72 hrs by MTT assay. The following applies: COLO357, time 72 hrs. Format: functional, cell-based. In general terms: Formazan colour is commonly taken as a measure of viable cells.
The subject of another experiment is Panc02. As to the kind of experiment: Inhibition of cell growth in mouse Panc02 cells incubated for 72 hrs by MTT assay. The experiment is classed as functional.
Experiment [1] has as its system Panel NCI-60 (60 carcinoma cell lines). As to the kind of experiment: Antiproliferative activity against human panel NCI-60 (60 carcinoma cell lines) incubated for 48 hrs by SRB assay. Format: functional. Background: The SRB assay estimates cell density from bound dye.
The test system of the next experiment is HL-60(TB). In words: Antiproliferative activity against human HL-60(TB) cells assessed as mean cell growth at 10 uM incubated for 48 hrs by SRB assay relative to control. Format: functional.
The test system of a further experiment is K562. In words: Inhibition of cell growth in human K562 cells incubated for 72 hrs by MTT assay. Format: functional, cell-based. The settings on record: K562, time 72 hrs.
Experiment [2] relates to Panel NCI-60 (60 carcinoma cell lines). In words: Antiproliferative activity against human panel NCI-60 (60 carcinoma cell lines) assessed as total inhibition of cell growth incubated for 48 hrs by SRB assay. Format: functional.
The test system of the next experiment is MDA-MB-435. In words: Antiproliferative activity against human MDA-MB-435 cells assessed as mean cell growth at 10 uM incubated for 48 hrs by SRB assay relative to control. Format: functional.
For a further experiment, the system named is SK-MEL-5. As to the kind of experiment: Antiproliferative activity against human SK-MEL-5 cells assessed as mean cell growth at 10 uM incubated for 48 hrs by SRB assay relative to control. Format: functional.

As usually defined, the GI50 is the concentration at which growth is held to half of that of the control. A higher GI50 goes with lower sensitivity of the cells. As usually defined, the LC50 is the concentration lethal to half of the exposed cells or organisms. High values mean lower toxicity, low ones greater toxicity. For the compound `CCN1C(=O)N(CC)C2C1NN=c1s/c(=C\c3ccccc3F)c(=O)n12` (stereo not given), the GI50 in the experiment with COLO357 was found to be 16 nM; in the experiment with Panc02, 3.2 nM; in experiment [1] it was 240 nM; in the experiment with K562, 16 nM. The same compound displayed an LC50 in experiment [1] greater than 95500 nM. Further, in the experiment on HL-60(TB), the “Cell growth relative to control” value amounted to 18%. Further, in experiment [2], the GI was greater than 63.3 µM.

On to `CN1C(=O)N(C)C2Nn3c(s/c(=C\c4ccccc4F)c3=O)=NC21` (stereo not given), for which the Activity with MDA-MB-435 is reported as 69%.

Take `COc1cccc2c1C(=O)c1c(O)c3c(c(O)c1C2=O)C[C@@](O)(C(C)=O)C[C@@H]3O[C@H]1C[C@H](N)[C@H](O)[C@H](C)O1` [DAUNORUBICIN]: in the experiment with SK-MEL-5, the Activity is recorded as -28%.

In experiment [1], `CN1C(=O)N(C)C2C1NN=c1s/c(=C\c3ccc(F)cc3)c(=O)n12` (stereo not given) came in with a GI50 of 3470 nM and an LC50 greater than 97600 nM. Besides, in the experiment on HL-60(TB), the “Cell growth relative to control” value was found to be 28%. Moreover, the GI in experiment [2] was greater than 81.5 µM.

For `CCN1C(=O)N(CC)C2Nn3c(s/c(=C\c4ccccc4)c3=O)=NC21` (stereo not given), in the experiment with MDA-MB-435, the Activity came out at 67%.

Turning to `CN1C(=O)N(C)C2C1NN=c1s/c(=C\c3ccccc3)c(=O)n12` (stereo not given), in the experiment with MDA-MB-435, the Activity is reported as 41%.

Take `CCN1C(=O)N(CC)C2C1NN=c1s/c(=C\c3cccc(F)c3)c(=O)n12` (stereo not given): the Activity with MDA-MB-435 was 23%. In addition, the GI50 stood at 80 nM in the experiment with COLO357, 80 nM in the experiment with Panc02, 2450 nM in experiment [1] and 80 nM in the experiment with K562. Also, in experiment [1], the LC50 was greater than 99100 nM. For the same compound, the GI in experiment [2] is greater than 81.2 µM.

As to `CCN1C(=O)N(CC)C2Nn3c(s/c(=C\c4ccc(Cl)cc4Cl)c3=O)=NC21` (stereo not given), the Activity in the experiment on MDA-MB-435 amounted to 40%.

In the case of `CCN1C(=O)N(CC)C2C1NN=c1s/c(=C\c3ccc(OC)cc3)c(=O)n12` (stereo not given), the GI50 in the experiment with COLO357 came to 400 nM; with Panc02, 16 nM; in experiment [1] it was 2280 nM; with K562, 400 nM. The median lethal concentration (LC50) in experiment [1] is greater than 95500 nM. The “Cell growth relative to control” value with HL-60(TB) was found to be 19%. Further, the GI in experiment [2] was greater than 71.4 µM.

As for `CCN1C(=O)N(CC)C2Nn3c(s/c(=C\c4ccc(OC)cc4)c3=O)=NC21` (stereo not given), the Activity with MDA-MB-435 was determined as 48%.

On to `CCN1C(=O)N(CC)C2C1NN=c1s/c(=C\c3ccc(C(F)(F)F)cc3)c(=O)n12` (stereo not given), for which the GI50 in the experiment on COLO357 stood at 2000 nM; in the experiment on Panc02 it was 2000 nM; in experiment [1], 610 nM; in the experiment on K562 it was 2000 nM. In experiment [1], this compound showed an LC50 greater than 96600 nM. Also, in the experiment with HL-60(TB), the “Cell growth relative to control” value was determined as 19%. The GI in experiment [2] is greater than 65.4 µM.

Turning to `CCN1C(=O)N(CC)C2Nn3c(s/c(=C\c4ccccc4Br)c3=O)=NC21` (stereo not given), the Activity in the experiment on MDA-MB-435 was 22%. In experiment [1], this compound displayed a GI50 of 2430 nM and an LC50 greater than 95000 nM. The GI in experiment [2] is greater than 53.6 µM.

For the compound `CN1C(=O)N(C)C2Nn3c(s/c(=C\c4ccc(Cl)cc4Cl)c3=O)=NC21` (stereo not given), in the experiment on MDA-MB-435, the Activity is on record as 56%.

As to `CC[C@@]1(O)C(=O)OCc2c1cc1n(c2=O)Cc2cc3ccccc3nc2-1` [CAMPTOTHECIN], the Activity with SK-MEL-5 was -27%.

In experiment [1], `CCN1C(=O)N(CC)C2C1NN=c1s/c(=C\c3ccccc3Br)c(=O)n12` (stereo not given) displayed a GI50 of 920 nM and an LC50 greater than 87500 nM. The “Cell growth relative to control” value in the experiment with HL-60(TB) was determined as 21%. The GI in experiment [2] is greater than 38.3 µM.

On to `CCN1C(=O)N(CC)C2C1NN=c1s/c(=C\c3ccc([N+](=O)[O-])cc3)c(=O)n12` (stereo not given), for which the GI50 amounted to 400 nM in the experiment with COLO357, 400 nM with Panc02, 1040 nM in experiment [1] and 400 nM in the experiment on K562. In addition, the median lethal concentration (LC50) in experiment [1] was greater than 98600 nM. In the experiment on HL-60(TB), the “Cell growth relative to control” value came out at 26%. The GI in experiment [2] was greater than 63 µM.

As to `CCN1C(=O)N(CC)C2Nn3c(s/c(=C\c4cccc([N+](=O)[O-])c4)c3=O)=NC21` (stereo not given), the Activity in the experiment with MDA-MB-435 is recorded as 42%.

For `COc1cccc2c1C(=O)c1c(O)c3c(c(O)c1C2=O)C[C@@](O)(C(=O)CO)C[C@@H]3O[C@H]1C[C@H](N)[C@H](O)[C@H](C)O1` [DOXORUBICIN], the Activity with SK-MEL-5 is -20%.

With `CCN1C(=O)N(CC)C2Nn3c(s/c(=C\c4cccc(F)c4)c3=O)=NC21` (stereo not given), in the experiment on MDA-MB-435, the Activity is reported as 65%.

Regarding `CCN1C(=O)N(CC)C2C1NN=c1s/c(=C\c3ccc(F)cc3)c(=O)n12` (stereo not given), the GI50 with COLO357 stood at 80 nM; in the experiment on Panc02 it was 80 nM; in experiment [1], 1680 nM; in the experiment on K562, 400 nM. The compound also yielded an LC50 in experiment [1] greater than 97800 nM. Besides, the “Cell growth relative to control” value with HL-60(TB) was determined as 21%. The GI in experiment [2] was greater than 81.3 µM.

Take `CN1C(=O)N(C)C2C1NN=c1s/c(=C\c3ccccc3F)c(=O)n12` (stereo not given): the GI50 in the experiment on COLO357 is 80 nM; in the experiment on Panc02, 16 nM; in experiment [1], 610 nM; in the experiment with K562, 400 nM. Besides, in experiment [1], the median lethal concentration (LC50) was greater than 97600 nM. For the same compound, in the experiment on HL-60(TB), the “Cell growth relative to control” value came to 21%. For the same compound, in experiment [2], the GI was greater than 75.9 µM.

Take `COc1ccc(/C=c2\sc3n(c2=O)C2C(NN=3)N(C)C(=O)N2C)cc1` (stereo not given): the Activity in the experiment with MDA-MB-435 was 24%. In addition, the GI50 was 400 nM in the experiment on COLO357, 400 nM with Panc02, 7320 nM in experiment [1] and 2000 nM in the experiment on K562. Further, the median lethal concentration (LC50) in experiment [1] was greater than 100000 nM. For the same compound, the GI in experiment [2] was greater than 83.8 µM.

Regarding `CCN1C(=O)N(CC)C2C1NN=c1s/c(=C\c3cccc([N+](=O)[O-])c3)c(=O)n12` (stereo not given), the GI50 with COLO357 was 400 nM; with Panc02, 80 nM; in experiment [1], 2020 nM; in the experiment with K562 it was 400 nM. In experiment [1], the LC50 was greater than 98700 nM. Moreover, in the experiment on HL-60(TB), the “Cell growth relative to control” value was 23%. Besides, in experiment [2], the GI was greater than 83.1 µM.

For the compound `CCN1C(=O)N(CC)C2Nn3c(s/c(=C\c4ccccc4F)c3=O)=NC21` (stereo not given), in the experiment on MDA-MB-435, the Activity is 41%.

Take `CN1C(=O)N(C)C2C1NN=c1s/c(=C\c3ccc(Br)cc3)c(=O)n12` (stereo not given): the Activity in the experiment with MDA-MB-435 is reported as 29%.

Consider `CCN1C(=O)N(CC)C2C1NN=c1s/c(=C\c3ccccc3)c(=O)n12` (stereo not given), for which the GI50 was determined as 80 nM in the experiment on COLO357, 80 nM in the experiment with Panc02, 2290 nM in experiment [1] and 80 nM in the experiment on K562. The compound also returned an LC50 in experiment [1] greater than 97600 nM. The “Cell growth relative to control” value in the experiment on HL-60(TB) was 19%. Moreover, the GI in experiment [2] is greater than 84.6 µM.

Take `CN1C(=O)N(C)C2C1NN=c1s/c(=C\c3ccc(Cl)cc3Cl)c(=O)n12` (stereo not given): the GI50 turned out to be 80 nM with COLO357, 80 nM with Panc02, 650 nM in experiment [1] and 80 nM with K562. Further, the LC50 in experiment [1] is greater than 100000 nM. Moreover, the “Cell growth relative to control” value in the experiment on HL-60(TB) is on record as 27%. Besides, the GI in experiment [2] was greater than 78 µM.

With `CN1C(=O)N(C)C2C1NN=c1s/c(=C\c3ccc(C(F)(F)F)cc3)c(=O)n12` (stereo not given), in the experiment with MDA-MB-435, the Activity is 26%. In experiment [1], this compound registered a GI50 of 4210 nM and an LC50 greater than 97700 nM. Further, in experiment [2], the GI was greater than 72.2 µM.

`CCN1C(=O)N(CC)C2C1NN=c1s/c(=C\c3ccc(Br)cc3)c(=O)n12` (stereo not given): the GI50 in the experiment with COLO357 is 80 nM; with Panc02 it was 400 nM; in experiment [1] it was 2570 nM; in the experiment on K562, 80 nM. The same compound returned an LC50 in experiment [1] greater than 100000 nM. The “Cell growth relative to control” value in the experiment with HL-60(TB) amounted to 19%. Moreover, the GI in experiment [2] was greater than 80.5 µM.

For the compound `CN1C(=O)N(C)C2C1NN=c1s/c(=C\c3ccc([N+](=O)[O-])cc3)c(=O)n12` (stereo not given), the Activity in the experiment with MDA-MB-435 is 58%.

Consider `CN1C(=O)N(C)C2C1NN=c1s/c(=C\c3cccc([N+](=O)[O-])c3)c(=O)n12` (stereo not given), for which the Activity in the experiment with MDA-MB-435 was determined as 88%.
